The values below come from patent publication US20190216751A1, “Compositions and Methods for the Treatment and Prevention of Cancer” (California State University Northridge, priority 2017, published 2019).

Test [1] relates to ZEB1 expression in MCF10CA1a cells. As to the kind of experiment: qPCR ZEB1 mRNA, TGFβ-induced EMT. Particulars: GC7 10 μM pre-treatment, TGFβ 2.5 ng/mL 48 hours, fibronectin. In kind it is cell-based, human. From the text:
The pathway in which the inventors are interested in targeting eIF5A is in the context of TGFβ-induced EMT and TGFβ is a well-characterized inducer of EMT. […] Phase-contrast images are shown to the right of the western blot to indicate a shift in morphology after treatment with TGFβ. […] Since TGFβ can induce PEAK1 upregulation, while in contrast, hypusinated eIF5A promotes PEAK1 translation, the inventors sought to see if TGFβ alone can upregulate hypusinated eIF5A. Post-translational modifications can occur relatively fast. Therefore short-term treatments of TGFβ on 4T1, 67NR and MCF10CA1a cells were performed initially. Protein lysates were collected after 10, 30 and 120 minutes of treatment and immunoblotted for hypusine, total eIF5A and β-actin (FIG. 4B). […] Relative band intensity is graphed to the right of the western blot in which the ratio between hypusine to total eIF5A is compared first between treated samples to control samples then a ratio is calculated comparing each time point relative to 10 minutes as a starting time point of reference. […] The inventors were also interested in what genes were altered at the transcriptional level when dual treating with TGFβ and GC7 at the same time to block EMT. […]
In general terms: In qPCR the cycle at which signal appears reflects the starting amount.

Test [2] relates to eIF5A localization in 4T1 cells. Description: Immunofluorescence, subcellular localization of total eIF5A. The test is classed as cell-based, mouse. The conditions noted are these: 10 μM each drug, 48 hours. From the text:
The next research questions revolved around asking how TGFβ is regulating eIF5A and what other proteins might be involved to completely block TGFβ-induced EMT. This led to histone deacetylase enzyme 6 (HDAC6). HDAC6 has been previously reported to be responsible for the deacetylation of eIF5A in the nucleus in order to make it readily available for hypusination and later transport out in the cytoplasm for functioning as a translation factor. To determine if it were possible to further increase the efficacy or potency of GC7, the inventors co-treated with Tubastatin A (an HDAC6 inhibitor) in 4T1 and 67NR cells as well as MDA-MB-468 cells which initially were not very sensitive to GC7. Triple negative human breast cancer cell line, BT547, was also used to see if another cell line representative of this breast cancer subtype was sensitive towards DHPS and HDAC6 inhibition. (FIGS. 5A and 5B). Here, are shown cell viability graphs for these four cell lines pretreated with GC7 at 1 μM and after 12 hours were exposed to various concentrations of Tubastatin A (TubA) ranging from 0.1 nM to 100 μM. […] MDA-MB-468 and BT549 cells remained to be insensitive to TubA with or without GC7 pretreatment (FIG. 5A). […]

The subject of another test is 4T1 cells. Description: Cell number by phase-contrast images, with TGFβ. The test is classed as cell-based, mouse. The conditions noted are these: 10 μM each drug, 96-hour time point. The procedure:
Next, the inventors investigated whether blockade of HDAC6 and DHPS activity could further suppress TGFβ-induced EMT either independently or simultaneously. To test this, 4T1 cells were treated with either TubA at 10 μM, GC7 at 10 μM or both for 48 hours. At this time point, protein lysates were collected as well as phase-contrast images (FIGS. 6B and 6C). At that same time point, the media was changed and the cells were re-treated with the same drugs at the same concentrations; however, this time with the addition of TGFβ at 2.5 ng/mL. The inventors collected protein lysates and phase-contrast images just one day post TGFβ treatment, calling this the 72-hour time point (FIGS. 6B and 6C). In addition, the inventors collected mRNA, protein lysates, phase-contrast and immunofluorescences images two days post TGFβ treatment, calling this the 96-hour time point (FIGS. 6A, 6B, 6C and 6D).
Images were taken of cells plated on a 6 well plate with appropriate conditions or treatments for experiment using widefield-brightfield phase contrast microscopy on a Leica DMI6000 B inverted microscope at 20× magnification.

Take `N=C(N)NCCCCCCCN.O=S(=O)(O)O` [GC7, N1-Guanyl-1,7-diaminoheptane]: the “TGFβ-induced EMT (ZEB1 mRNA)” value in test [1] was “this EMT was blocked”. Besides, the “localization of total eIF5A” value in test [2] is listed as “predominantly cytoplasmic”. Moreover, the cell number entry with 4T1 cells is reported as “drastic reduction in cell number”.
